Experiment [1] relates to E3D1cre19 MECs (β1 Int−/− or β1 Int+). Description: Laminin internalization in β1 integrin-deleted or re-expressing cells, flow cytometry. The format is cell-based, mouse. From the text:
The integrin family of ECM receptors is expressed in the DG−/− cell population (MepG-vec and MepL-vec cell lines, FIG. 11A), but are apparently unable to mediate significant laminin internalization alone (FIG. 7B). To directly test the role of integrins in laminin internalization, an MEC cell line containing an engineered β1 integrin (β1 int) deletion, E3D1cre19 (β1 Intl−/−) was used (cre19-vec, FIG. 11A, see Example 10 infra). These β1 int−/− cells were infected with the empty vector retrovirus or with a WT β1 int expressing retrovirus. The re-expression of WT β1 integrin in β1 int−/− cells produced a modest but statistically insignificant change ([…]) in laminin internalization (MFI β1 Intl−=21.4±3; β1 Int+=26.8±1.2; n=6, p=0.17) (FIG. 7D). […] Therefore, although the β1 integrins are not required for the majority laminin internalization, they can enhance it, possibly as co-receptors with DG (Leonoudakis D et al, 2010 supra; Weir M L et al, 2006 supra).
Cell culture—Primary mammary epithelial cells from control or ΔDGK14-Cre mid-pregnant mice were obtained as previously described (Weir et al, 2006 supra). DG-knockout (MEpG and MEpL cells), and WT E3D1 mammary epithelial cells were established as described previously (Weir et al, 2006 supra) from floxed-DG mice. β1 int-knockout (E3D1 cre19) MECs were established from floxed -β1 int primary MECS, as above. MECs were grown in DME/F12, 2% FBS, 10 μg/ml insulin and 5 ng/ml EGF (BD Biosciences, San Jose, Calif., USA). […] These cultures produced >95% astrocytes as determined by staining with GFAP astrocyte marker antibody.
Flow Cytometry—Cells were plated in 12 well plates at 200,000 cells/well. […] Using a BD FACScan flow cytometer (BD Biosciences, San Jose, Calif., USA), 10,000 cells/well were counted, background fluorescence from the cell counts with no added laminin subtracted and the mean fluorescence intensity values reported. […]
(In flow cytometry, cells or beads pass a laser one at a time.)

For the next experiment, the system named is E3D1 MECs. The experiment in a line: Pulsed time course of Rhod-Ln internalization, flow cytometry. Type of experiment: cell-based, mouse. Here is the method:
To explore the dynamics of laminin internalization, steady-state time course experiments (measuring internalization in the continuous presence of labeled laminin) and pulsed time course experiments were performed. In pulsed time course experiments, the cells were exposed to exogenous Rhod-Ln at 4° C. to prevent internalization, excess unbound Rhod-Ln was washed away, and then cells were returned to 37° C. to allow synchronized internalization and trafficking to proceed. […] Following pulsed and synchronized laminin exposure, Rhod-Ln was again observed to internalize within 1 hour, but reached a maximum at 8 hours, after which the levels of internal laminin declined (FIG. 4A). After 24 hours, internal Rhod-Ln levels declined to ˜37% of the maxima, indicating degradation (MFI: 315±3.5 to 119±11.5). To determine if laminin was degraded using classical degradation pathways, pulsed time course experiments in the presence of leupeptin (lysosome inhibitor) or […] (proteasome inhibitor) were performed.
Laminin labeling—Laminin-111 (1 mg) (Sigma-Aldrich Corp., St. Louis, Mo., USA) was dialyzed twice overnight against 500 ml of PBS with 10 μM CaCl2. The dialyzed laminin was then reacted with 10 μg NHS-rhodamine, or a 50 fold molar excess of NHS409 CypHer5 (GE) for 2 hr on ice, followed by dialysis twice overnight against 500 ml of PBS with 10 μM CaCl2.
Flow Cytometry—Cells were plated in 12 well plates at 200,000 cells/well. The following day, media was changed to serum-free media with or without 10 μg/ml rhodamine laminin or 40 μg/ml FITC-dextran (500S-Sigma-Aldrich Corp., St. Louis, Mo., USA). Unless otherwise indicated, cells were incubated 18-24 hrs, washed once with PBS, and cells trypsinized. Cells were washed in 5 ml cold PBS/1 mM EDTA, pelleted, and resuspended in 1 ml PBS/1 mM EDTA. Using a BD FACScan flow cytometer (BD Biosciences, San Jose, Calif., USA), 10,000 cells/well were counted, background fluorescence from the cell counts with no added laminin subtracted and the mean fluorescence intensity values reported. Graphed data are compiled from duplicate wells from each experiment with a minimum of three separate experiments, unless indicated otherwise.

For the substance “Rhod-Ln: laminin-111 labeled with NHS-rhodamine; dystroglycan binding reagent”, the “MFI of internalized laminin, β1 Int+ cells” value in experiment [1] (WT β1 integrin re-expressed, n=6) is on record as 26.8±1.2. Also, the “MFI of internalized laminin, β1 Int−/− cells” value in experiment [1] (empty vector, n=6) was 21.4±3. Besides, in experiment [1] (statistically insignificant, p=0.17), the “increase in laminin internalization on re-expression of WT β1 integrin” value is listed as 20%. Besides, the “time at which Rhod-Ln was observed to internalize” value in the experiment with E3D1 MECs (pulsed and synchronized laminin exposure, 4° C. then 37° C.) is no more than 1 h. For the same substance, in the experiment on E3D1 MECs (pulsed laminin exposure), the “time of maximum internal laminin” value came to 8 h. Besides, the “MFI of internal Rhod-Ln after 24 hours” value in the experiment with E3D1 MECs (pulsed, 24 hours) is 119±11.5. The “internal Rhod-Ln level relative to the maxima” value with E3D1 MECs (pulsed, after 24 hours) is given as roughly 37%. For the same substance, the “MFI of internal Rhod-Ln at the maximum” value in the experiment on E3D1 MECs (pulsed, maximum (8 hours)) was determined as 315±3.5.

These data come from patent US20170307610A1, “COMPOUNDS THAT BIND DYSTROGLYCAN AND USES THEREOF” (OREGON HEALTH & SCIENCE UNIVERSITY, priority 2014, published 2017).
